Patent publication US11427556B2, “Urea derivatives as inhibitors of ASK1” (Hepagene Therapeutics (HK) Limited, priority 2017, dated 2022)
Read-outs that look alike come from different tables or passages of the source.

Target: T1, Recombinant human ASK1 kinase (Homo sapiens, UniProt Q99683)
T1 construct: purchased Invitrogen Inc
T1 sequence (Q99683 1-1374): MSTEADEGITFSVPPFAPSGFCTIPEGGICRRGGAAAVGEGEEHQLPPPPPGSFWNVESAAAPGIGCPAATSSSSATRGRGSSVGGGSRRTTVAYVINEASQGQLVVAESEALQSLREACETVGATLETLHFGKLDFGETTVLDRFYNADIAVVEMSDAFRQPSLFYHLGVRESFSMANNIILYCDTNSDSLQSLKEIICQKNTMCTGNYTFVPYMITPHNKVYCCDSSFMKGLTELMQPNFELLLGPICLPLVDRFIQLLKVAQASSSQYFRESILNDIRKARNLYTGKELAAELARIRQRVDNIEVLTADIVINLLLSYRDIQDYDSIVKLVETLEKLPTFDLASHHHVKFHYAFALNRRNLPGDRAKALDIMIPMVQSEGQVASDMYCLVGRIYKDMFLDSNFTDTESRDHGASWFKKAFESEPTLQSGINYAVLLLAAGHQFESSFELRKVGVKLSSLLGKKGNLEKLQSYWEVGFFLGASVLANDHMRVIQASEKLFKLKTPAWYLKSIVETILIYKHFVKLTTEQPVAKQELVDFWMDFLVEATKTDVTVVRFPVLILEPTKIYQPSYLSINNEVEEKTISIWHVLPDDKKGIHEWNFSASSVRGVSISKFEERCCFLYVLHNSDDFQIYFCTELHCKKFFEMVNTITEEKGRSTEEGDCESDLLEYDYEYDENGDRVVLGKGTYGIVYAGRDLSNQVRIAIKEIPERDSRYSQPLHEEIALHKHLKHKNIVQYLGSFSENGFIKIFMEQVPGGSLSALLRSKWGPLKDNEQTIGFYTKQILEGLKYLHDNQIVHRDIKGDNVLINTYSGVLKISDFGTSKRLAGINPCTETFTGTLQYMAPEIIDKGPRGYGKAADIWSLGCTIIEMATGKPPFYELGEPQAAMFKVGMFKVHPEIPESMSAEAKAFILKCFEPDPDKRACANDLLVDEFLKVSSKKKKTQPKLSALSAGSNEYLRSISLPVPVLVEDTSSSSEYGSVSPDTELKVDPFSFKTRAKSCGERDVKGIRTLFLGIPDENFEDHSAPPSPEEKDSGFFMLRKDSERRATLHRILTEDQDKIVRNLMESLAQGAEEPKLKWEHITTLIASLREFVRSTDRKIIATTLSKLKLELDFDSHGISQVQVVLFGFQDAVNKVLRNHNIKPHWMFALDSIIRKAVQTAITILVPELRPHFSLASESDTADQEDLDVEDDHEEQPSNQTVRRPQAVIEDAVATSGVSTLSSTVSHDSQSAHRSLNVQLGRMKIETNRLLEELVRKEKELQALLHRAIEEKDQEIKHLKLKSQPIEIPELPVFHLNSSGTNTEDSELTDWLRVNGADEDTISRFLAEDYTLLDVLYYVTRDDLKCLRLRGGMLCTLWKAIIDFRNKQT
Assay: ASK1 kinase HTRF assay (HTRF KinEASE-STK, phosphorylation of biotinylated peptide substrate)
Assay type: biochemical
Description: Reagents: Recombinant human ASK1 kinase was from Invitrogen Inc. HTRF KinEASETM-STK S3 kit was obtained from Cisbio (Bedford, Mass.). All other reagents were of the highest grade commercially available.
Assay: The assay measures the phosphorylation level of a biotinylatd peptide substrate by the ASK1 kinase using HTRF detection. ASK1 kinase assay is based on HTRF KinEASETM-STK manual from Cisbio. Test compound, 1 uM STK-substrate-biotin, 3 nM of ASK1 kinase are incubated with 1*Kinase buffer with 5 mM MgCl2 and 1 mM DTT.

[1] = 3 nM ASK1 kinase, 1 uM STK-substrate-biotin, HTRF detection, read-out: EC50

Row | Structure (SMILES) | EC50 [1] [nM] | EC50 [nM]
1 | CC(=O)N1CCN(c2ccnc(NC(=O)Nc3cccc(-c4nncn4C(C)C)n3)c2)CC1 [Compound I-104] | < 50 | 
2 | CC(C)n1cnnc1-c1cccc(NC(=O)Nc2cc([N+](=O)[O-])ccn2)n1 [Compound I-175] | < 50 | 
3 | COc1ccnc(NC(=O)Nc2cccc(-c3nncn3C(C)C)n2)c1 [Compound I-052] | < 50 | 
4 | CC(C)n1cnnc1-c1cccc(NC(=O)Nc2cc(C(=O)N3CCC(F)(F)CC3)ccn2)n1 [Compound I-143] | < 50 | 
5 | CC(C)n1cnnc1-c1cccc(NC(=O)Nc2cc(C3CCNCC3)ccn2)n1 [Compound I-050] | < 50 | 
6 | C[C@H](CO)n1cnnc1-c1cccc(N2CCN(c3ccc(F)cn3)C2=O)n1 [Compound V-03] | < 50 | 
7 | CC(C)n1cnnc1-c1cccc(NC(=O)Nc2ccc(C#N)cn2)n1 [Compound I-199] | < 50 | 
8 | CC(C)n1cnnc1-c1cccc(NC(=O)Nc2cc(-c3cccnc3)ccn2)n1 [Compound I-086] | < 50 | 
9 | CC(C)n1cnnc1-c1cccc(-n2ccn(-c3ccc(N4CCNCC4)cn3)c2=O)n1 [III-04, 1-(6-(4-Isopropyl-4H-1,2,4-triazol-3-yl)pyridin-2-yl)-3-(5-(piperazin-1-yl)pyridin-2-yl)-1H-imidazol-2(3H)-one] | < 50 | 
10 | CC(C)n1cnnc1-c1cccc(NC(=O)Nc2ncccc2I)n1 [Compound I-172] | < 50 | 
11 | Cc1ccc(NC(=O)Nc2cccc(-c3nncn3[C@H](C)CO)n2)nc1 [Compound I-036] | < 50 | 
12 | CC(C)n1cnnc1-c1cccc(NC(=O)Nc2cc(C(=O)N3CCN(C)CC3)ccn2)n1 [Compound I-141] | < 50 | 
13 | C[C@@H]1CCCCN1C(=O)c1ccnc(NC(=O)Nc2cccc(-c3nncn3[C@H](C)CO)n2)c1 [Compound I-121] | < 50 | 
14 | CC(C)n1cnnc1-c1cccc(NC(=O)Nc2cc(N3CCN(S(C)(=O)=O)CC3)ccn2)n1 [Compound I-102] | < 50 | 
15 | CC(C)n1cnnc1-c1cccc(NC(=O)Nc2ccc(C(C)(C)O)cn2)n1 [Compound I-214] | < 50 | 
16 | Cc1ccc(N(C)C(=O)Nc2cccc(-c3nncn3C(C)C)n2)c(F)c1 [II-01, 1-(2-Fluoro-4-methylphenyl)-3-(6-(4-isopropyl-4H-1,2,4-triazol-3-yl)pyridin-2-yl)-1-methylurea] | 500 to 5000 | 
17 | CC(C)n1cnnc1-c1cccc(NC(=O)Nc2ncccc2-c2ccncc2)n1 [Compound I-083] | 50 to 500 | 
18 | C[C@@H](CO)n1cnnc1-c1cccc(NC(=O)Nc2cc(Cl)ccn2)n1 [Compound I-183] | < 50 | 
19 | CC(C)(C)n1cnnc1-c1cccc(NC(=O)Nc2cc(C(=O)N3CCCCC3)ccn2)n1 [Compound I-008, 3-[6-(4-tert-Butyl-4H-1,2,4-triazol-3-yl)pyridin-2-yl]-1-[4-(piperidine-1-carbonyl)pyridin-2-yl]urea] | < 50 | 
20 | CC(C)n1cnnc1-c1cccc(NC(=O)Nc2cc(Br)ccn2)n1 [Compound I-177] | < 50 | 
21 | CC(C)n1cnnc1-c1cccc(NC(=O)Nc2ccc(N)cn2)n1 [Compound I-209] | < 50 | 
22 | C[C@H](CO)n1cnnc1-c1cccc(NC(=O)Nc2cc(Cl)ccn2)n1 [Compound I-182] | < 50 | 
23 | CC(C)n1cnnc1-c1cccc(NC(=O)Nc2cc(-n3cnc(C4CC4)c3)ccn2)n1 [Compound I-170] | < 50 | 
24 | CC(C)n1cnnc1-c1cccc(NC(=O)Nc2cc(C(=O)N3CCC(C)(O)CC3)ccn2)n1 [Compound I-138] | < 50 | 
25 | CC(C)n1cnnc1-c1cccc(NC(=O)Nc2cc(N3CCCC3)ccn2)n1 [Compound I-167] | < 50 | 
26 | CC(C)n1cnnc1-c1cccc(NC(=O)Nc2cc(S(N)(=O)=O)ccn2)n1 [Compound I-205] | < 50 | 
27 | CC(C)n1cnnc1-c1cccc(NC(=O)Nc2cc(C(=O)N3CCC(=O)CC3)ccn2)n1 [Compound I-134] |  | < 50

Row | Structure (SMILES) | EC50 [1] [nM] | EC50 [nM]
28 | CC(C)n1cnnc1-c1cccc(NC(=O)Nc2cc(NC(=O)c3ccccc3)ccn2)n1 [Compound I-004, N-(2-(3-(6-(4-Isopropyl-4H-1,2,4-triazol-3-yl)pyridin-2-yl)ureido)pyridin-4-yl)benzamide] | < 50 | 
29 | CC(n1cnnc1-c1cccc(NC(=O)Nc2ccccn2)n1)C(F)(F)F (stereo not drawn) [Compound I-003, 3-(Pyridin-2-yl)-1-[6-[4-(1,1,1-trifluoropropan-2-yl)-4H-1,2,4-triazol-3-yl]pyridin-2-yl]urea] | < 50 | 
30 | CNc1ccc(NC(=O)Nc2cccc(-c3nncn3C(C)C)n2)nc1 [Compound I-189] | < 50 | 
31 | C[C@H](CO)n1cnnc1-c1cccc(NC(=O)Nc2cc(C(=O)N3CCC(C)(C)CC3)ccn2)n1 [Compound I-007, (R)-1-(4-(4,4-Dimethylpiperidine-1-carbonyl)pyridin-2-yl)-3-(6-(4-(1-hydroxypropan-2-yl)-4H-1,2,4-triazol-3-yl)pyridin-2-yl)urea] | < 50 | 
32 | CC(C)n1cnnc1-c1cccc(NC(=O)Nc2nccc3ccccc23)n1 [Compound I-066] |  | < 50
33 | C[C@H](CO)n1cnnc1-c1cccc(NC(=O)Nc2cc(C(=O)N3CCCCC3)ccn2)n1 [Compound I-110] |  | < 50
34 | CC(C)n1cnnc1-c1cccc(NC(=O)Nc2cc(C3CCCC3)ccn2)n1 [Compound I-048] | < 50 | 
35 | C[C@H](CO)n1cnnc1-c1cccc(N2CCN(c3cc4ccccc4cn3)C2=O)n1 [Compound V-04] | < 50 | 
36 | CC(C)c1ccnc(NC(=O)Nc2cccc(-c3nncn3C(C)C)n2)c1 [Compound I-045] | < 50 | 
37 | CC(C)n1cnnc1-c1cccc(NC(=O)Nc2ncccc2C(=O)O)n1 [Compound I-201] | 50 to 500 | 
38 | C[C@H](CO)n1cnnc1-c1cccc(NC(=O)Nc2cc(C(=O)N3C4CCCC3CC4)ccn2)n1 [Compound I-150] | < 50 | 
39 | CC(C)n1cnnc1-c1cccc(NC(=O)Nc2ncccc2-c2cccnc2)n1 [Compound I-082] | < 50 | 
40 | CC(C)n1cnnc1-c1cccc(N2CCN(c3ccc(-c4ccccc4)cn3)C2=O)n1 [Compound V-05] | < 50 | 
41 | CC(C)c1ccc(NC(=O)Nc2cccc(-c3nncn3C(C)C)n2)nc1 [Compound I-044] | < 50 | 
42 | CC(=O)OC[C@@H](C)n1cnnc1-c1cccc(N2CCN(c3ccc(N4CCOCC4)cn3)C2=O)n1 [Compound V-19] | 50 to 500 | 
43 | C[C@H](CO)n1cnnc1-c1cccc(NC(=O)Nc2cc(C(=O)N3CCc4ccccc4C3)ccn2)n1 [Compound I-122] | < 50 | 
44 | CC(C)n1cnnc1-c1cccc(NC(=O)Nc2cc(N(C)C)ccn2)n1 [Compound I-192] | < 50 | 
45 | COc1ccc(NC(=O)Nc2cccc(-c3nncn3C(C)C)n2)nc1 [Compound I-051] | < 50 | 
46 | CC(C)n1cnnc1-c1cccc(N2CCN(c3ccc(C(=O)N4CCOCC4)cn3)C2=O)n1 [Compound V-25] | < 50 | 
47 | CC(C)n1cnnc1-c1cccc(NC(=O)Nc2cc(C(=O)N3CCOCC3)ccn2)n1 [Compound I-132] |  | < 50
48 | C[C@H](CO)n1cnnc1-c1cccc(NC(=O)Nc2cc(C(=O)N3CCC(N4CCOCC4)CC3)ccn2)n1 [Compound I-131] | < 50 | 
49 | CC(C)n1cnnc1-c1cccc(N2CCN(c3ccc(N4CCOC[C@@H]4C)cn3)C2=O)n1 [Compound V-14] | < 50 | 
50 | Cc1cnc(NC(=O)Nc2cccc(-c3nncn3C(C)C)n2)cc1C [Compound I-043] | < 50 | 
51 | C[C@H](CO)n1cnnc1-c1cccc(NC(=O)Nc2cc(N3CCC(N4CCOCC4)CC3)ccn2)n1 [Compound I-107] | < 50 | 
52 | CC(C)n1cnnc1-c1cccc(NC(=O)Nc2cc3ccccc3cn2)n1 [Compound I-057] |  | < 50
53 | C[C@@H](CO)n1cnnc1-c1cccc(NC(=O)Nc2ccccn2)n1 [Compound I-027] | 50 to 500 | 
54 | CC(C)n1cnnc1-c1cccc(NC(=O)Nc2ncccc2C(F)(F)F)n1 [Compound I-193] | < 50 | 
